{"source": "paper PMC9137037", "about": "(Frontiers in Oncology, 2022)", "key": {"cynomolgus monkeys": {"test_system": "cynomolgus monkeys", "assay": "GLP repeat-dose toxicology, second monkey study No.00213519", "format": "in vivo, Macaca fascicularis", "experimental": "The non-human primate studies were carried out by the Charles River Laboratories (Ashland, OH USA). All the cynomolgus monkeys (Macaca fascicularis of Chinese origin) were obtained from Charles River Laboratories (Houston, TX, USA). In brief, the animals were approximately 2–4 years old and at the body weight between 2.2 and 3.1 kg at the initial dosing. The animals were kept at the temperature between 19°C and 24°C, humidity 30%–70%, and with 12 h light and 12 h dark light cycle. The Good manufacturing practice (GMP)-manufactured vaccine was used in the non-human primate study. […] Similar to mouse and dog dosing preparation, after the emulsion was prepared, a drop test was performed on each time of dosing to confirm that the emulsion had been prepared properly. […] The dose volume was split approximately equally across two different sites; 0.5 ml of the dose was intramuscularly (IM) injected into the right posterior lateral thigh, the left dosing was injected into the left site. All the animals’ body weights were monitored weekly after receiving. After each immunization, the animal body temperature was tested 6 and 24 h post each immunization. […] The animal bleed were collected before each time of immunization to monitor the antibody titers. There were two sets of non-human primate studies conducted. The first set of monkey study No.00213515 had 24 monkeys, 12 males, and 12 females divided into 4 groups: vehicle control, low dose 0.5 mg, medium dose 2 mg, and high dose 5 mg. There were 16 monkeys (8 males and 8 females) in the second set of monkey study No. 00213519. The monkeys in the four groups were vaccinated as follows: vehicle control, low dose 25 μg, medium dose 100 μg, and high dose 250 μg.\nIn the second set of non-human primate study (#00213519), 16 non-human primates, cynomolgus monkeys, were used. The monkeys were immunized […] at 2-week intervals represented by 1Y, 2Y, 3Y, and 4Y at days 1, 15, 29, and 43, respectively.The bleed were collected at day 1 (pre), day 29 (2Y+2/3Y), day 43 (3Y+2 and 4Y), and day 57 (4Y+2) ( Figure 4C ). There were four groups with 4 monkeys (2 males and 2 females) in each group. Group 1 was the control group, which was treated with only ISA 720 and ddwater. […] The Immunogenicity of peptide-based vaccines in non-human primates was detected by using ELISA to detect antibody titers in the sera of both non-human primate studies ( Figures 4E, F ). The relative high antibody responses have been established in each individual cynomolgus monkey.\nA slight increase in anti-APi2568 antibody titers was observed between day 29 and day 43, with no apparent reduction in titers by […]."}, "rhPD-L1": {"test_system": "rhPD-L1", "conditions": "surface plasmon resonance; cited from earlier work", "experimental": "(§1) The PD-1 amino acids 92-110 (^92[…]^101[…]^110) chosen for evaluation were selected based on the crystal structure of PD-1:PD-L1. This PD-1 sequence was synthesized as a chimeric construct with a promiscuous T-cell helper epitope derived from the measles virus fusion protein (MVF, amino acids 288-302). The specificity of the selected PD-1 peptide was determined by surface plasmon resonance spectroscopy."}, "nivolumab": {"test_system": "nivolumab", "conditions": "surface plasmon resonance; cited from earlier work", "experimental": "as §1"}, "beagle dogs": {"test_system": "beagle dogs", "assay": "Safety observations in immunized beagle dogs", "format": "in vivo, dog", "experimental": "In brief, the beagle dogs were purchased from Covance Research Products (Cumberland, VA, USA) and were housed in the Ohio State University Veterinarian Facility Institutional Animal Care Facility. The dogs were housed at 19°C−24°C room temperature with approximately 70% humidity, and 12 h light and 12 h dark–light cycle. The dogs’ body weights were at least 7.5 kg when they received the first immunization. […] The dogs received a total of 4 doses, immunization was done at the rear thigh with two sites of injections, the bleed was collected as indicated time points to monitor the antibody titers, and the body weight of each dog was monitored closely (see Figures 3B, C for detail).\nThis study was designed to monitor the kinetics of how quickly the antibody levels to MVF-PD-1(92-110) diminished after the dosing was stopped. The recall of an antibody response was also tested after re-challenge. Four beagle dogs were used in this study of MVF-PD-1(92-110) peptide cancer vaccine. Dogs #1, #2, and #3 were treated with MVF-PD-1(92-110) emulsified with nor-MDP and ISA 720 using different doses ( Figure 3A ). Dog#1 was treated with 1.0 mg low-dose peptide, dog#2 was treated with 1.5 mg medium-dose peptide, and dog #3 was treated with 3.0 mg high-dose peptide. The negative control dog #10 was only treated with the MVF peptide emulsified with nor-MDP and Montanide ISA720. Dogs were immunized 4 times designated as 1Y, 2Y, 3Y, and 4Y at Day 0, Day 35, Day 56, and 6 months after primary immunization, respectively. Blood was collected every 2 weeks, except for the first collection, which was 3 weeks after the primary immunization and 1 week after 2Y and 3Y immunization ( Figure 3B ). The sera were used to monitor the antibody titers. We monitored the beagle dogs’ body weight closely during the immunization period ( Figure 3C ).\n• a) Beagle dogs were immunized with MVF-PD-1 (92-110) (3 dogs with 1 dog each at the doses of 1, 1.5, and 3 mg/dose). • b) All dogs administered with MVF-PD-1 (92-110) had high polyclonal anti-MVF-PD-1 (92-110) antibody titers. […] These injection site lesions were mostly attributed to the high volume of Montanide ISA 720 VG used in this study."}, "[1]": {"conditions": "0, 25, 100, 250 µg/dose, days 1, 15, 29, 43, 14-day recovery"}}, "note": "Where no end group is shown, it is not given here.", "data": [{"sequence": "KLLSLIKGVIVHRLEGVEGPSLGAISLAPKAQIKESLRAEL [MVF-PD-1(92-110)]", "values": [{"measurement": "effects on body weight, food consumption, body temperature, clinical pathology parameters, or organ weight", "setting": "cynomolgus monkeys; [1]", "result": "No APi2568-related adverse effects"}, {"measurement": "survival", "setting": "cynomolgus monkeys; [1]", "result": "All monkeys survived to the scheduled necropsy"}, {"measurement": "NOAEL", "setting": "cynomolgus monkeys; 25, 100, 250 µg/dose IM as PD1-Vaxx, male and female cynomolgus monkeys", "result": 100, "unit": "µg/dose"}, {"measurement": "safety (summary)", "setting": "cynomolgus monkeys; monkey 2nd set", "result": "safe"}, {"measurement": "microscopic finding in the biceps femoris IM injection site", "setting": "cynomolgus monkeys; single 250 µg/dose group female monkey, 4 doses at 2-week intervals", "result": "adverse necrosis"}, {"measurement": "recognize and bind rhPD-L1", "setting": "rhPD-L1", "result": "able to recognize and bind"}, {"measurement": "recognize and bind nivolumab", "setting": "nivolumab", "result": "able to recognize and bind"}, {"measurement": "dogs with adverse local reaction (lesions at or near the IM injection site)", "setting": "beagle dogs; 1, 1.5 and 3 mg/dose, 1 dog each, lesions resolved within a few weeks after dosing ceased, mostly attributed to high volume of Montanide ISA 720 VG", "result": "Two out of three"}, {"measurement": "body weight by the end of the experiment compared with the initial weight", "setting": "beagle dogs; all dogs", "result": "gained some weight"}, {"measurement": "induction of autoimmune responses", "setting": "beagle dogs; beagle dogs", "result": "has not been observed"}, {"measurement": "safety (summary)", "setting": "beagle dogs; dog", "result": "safe"}]}]}
